Results as given in publication PMC9779606, “Synthesis, Structural Characterization and Biological Activity Evaluation of Novel Cu(II) Complexes with 3-(trifluoromethyl)phenylthiourea Derivatives” (International Journal of Molecular Sciences, 2022).

Assays:
P. aeruginosa ATCC 15442 = test: MIC, twofold serial microdilution, standard strains; settings: P. aeruginosa ATCC 15442, standard strain
S. epidermidis 437 = test: MIC, hospital methicillin-resistant strains (MRSE); settings: hospital MRSE strain S. epidermidis 437
[1] = tested on: S. epidermidis ATCC 12228; test: MIC, twofold serial microdilution, standard strains; settings: S. epidermidis ATCC 12228, standard strain
S. aureus 568 = test: MIC, hospital methicillin-resistant strains (MRSA); settings: hospital MRSA strain S. aureus 568
S. aureus 522 = test: MIC, hospital methicillin-resistant strains (MRSA); settings: hospital MRSA strain S. aureus 522
[2] = tested on: C. parapsilosis ATCC 22019; test: MIC, twofold serial microdilution, standard fungal strains; settings: C. parapsilosis ATCC 22019, standard strain
[3] = tested on: Bacillus subtilis H17 (rec+); settings: B. subtilis H17 (rec+); 256 µg per 9 mm disc (NOQ 2 µg per disc)
Experimental: (§1) DNA-damaging activity of compounds was tested by rec-assay using two genetically modified Bacillus subtilis strains: M45 (rec^−) and H17 (rec^+). Tested compounds were dissolved in DMSO, and 10 µL of each solution was dripped onto sterile cotton discs (Rotilabo) to load 256 µg of a given compound per 9 mm disc. Discs were placed on the surface Nutrient agar plates (Difco) inoculated with 100 µL of bacterial overnight culture and incubated for 24 h at 35 °C. After incubation, the growth inhibition zones were measured. […] Results of the genotoxicity test were estimated after 18 h of incubation at 35 °C by comparing the diameter of the inhibition zone on the B. subtilis M45 (rec^−) strain with that on the B. subtilis H17 (rec^+) strain.

[4] = tested on: Bacillus subtilis M45 (rec−); settings: B. subtilis M45 (rec−); 256 µg per 9 mm disc (NOQ 2 µg per disc)
Experimental: as §1

S. aureus 572 = test: MIC, hospital methicillin-resistant strains (MRSA); settings: hospital MRSA strain S. aureus 572
C. albicans ATCC 90028 = test: MIC, twofold serial microdilution, standard fungal strains; settings: C. albicans ATCC 90028, standard strain
M. tuberculosis H37Rv = test: Tuberculostatic activity, Microplate Alamar Blue Assay (MABA); assay type: cell-based, Mycobacterium tuberculosis; settings: M. tuberculosis H37Rv, standard strain, MABA
S. epidermidis 431 = test: MIC, hospital methicillin-resistant strains (MRSE); settings: hospital MRSE strain S. epidermidis 431
S. aureus 496 = test: MIC, hospital methicillin-resistant strains (MRSA); settings: hospital MRSA strain S. aureus 496
S. aureus 567 = test: MIC, hospital methicillin-resistant strains (MRSA); settings: hospital MRSA strain S. aureus 567
S. aureus 514 = test: MIC, hospital methicillin-resistant strains (MRSA); settings: hospital MRSA strain S. aureus 514
S. aureus ATCC 6538 = test: MIC, twofold serial microdilution, standard strains; settings: S. aureus ATCC 6538, standard strain
S. aureus 481 = test: MIC, hospital methicillin-resistant strains (MRSA); settings: hospital MRSA strain S. aureus 481
S. epidermidis 420 = test: MIC, hospital methicillin-resistant strains (MRSE); settings: hospital MRSE strain S. epidermidis 420
S. aureus 495 = test: MIC, hospital methicillin-resistant strains (MRSA); settings: hospital MRSA strain S. aureus 495
S. aureus 497 = test: MIC, hospital methicillin-resistant strains (MRSA); settings: hospital MRSA strain S. aureus 497
S. epidermidis 436 = test: MIC, hospital methicillin-resistant strains (MRSE); settings: hospital MRSE strain S. epidermidis 436
S. aureus 585 = test: MIC, hospital methicillin-resistant strains (MRSA); settings: hospital MRSA strain S. aureus 585
S. epidermidis 515 = test: MIC, hospital methicillin-resistant strains (MRSE); settings: hospital MRSE strain S. epidermidis 515
S. epidermidis 432 = test: MIC, hospital methicillin-resistant strains (MRSE); settings: hospital MRSE strain S. epidermidis 432
[5] = tested on: M. tuberculosis Spec. 192; test: Tuberculostatic activity, Microplate Alamar Blue Assay (MABA); assay type: cell-based, Mycobacterium tuberculosis; settings: M. tuberculosis Spec. 192, patient isolate fully sensitive to tuberculostatics, MABA
[6] = tested on: S. epidermidis ATCC 35984; test: MIC, twofold serial microdilution, standard strains; settings: S. epidermidis ATCC 35984, standard strain
S. epidermidis 469 = test: MIC, hospital methicillin-resistant strains (MRSE); settings: hospital MRSE strain S. epidermidis 469
S. epidermidis 513 = test: MIC, hospital methicillin-resistant strains (MRSE); settings: hospital MRSE strain S. epidermidis 513
S. aureus 537 = test: MIC, hospital methicillin-resistant strains (MRSA); settings: hospital MRSA strain S. aureus 537
E. coli NCTC 10538 = test: MIC, twofold serial microdilution, standard strains; settings: E. coli NCTC 10538, standard strain
C. albicans ATCC 10231 = test: MIC, twofold serial microdilution, standard fungal strains; settings: C. albicans ATCC 10231, standard strain

SMILES	MIC (P. aeruginosa ATCC 15442)	MIC (S. epidermidis 437)	MIC [1]	MIC (S. aureus 568)	MIC (S. aureus 522)	MIC [2]	Genotoxic activity, inhibition zone diameter, H17 [3]	Genotoxic activity, inhibition zone diameter, M45 [4]	MIC (S. aureus 572)	MIC (C. albicans ATCC 90028)	MIC (M. tuberculosis H37Rv)	MIC (S. epidermidis 431)	MIC (S. aureus 496)	MIC (S. aureus 567)	MIC (S. aureus 514)	MIC (S. aureus ATCC 6538)	MIC (S. aureus 481)	MIC (S. epidermidis 420)	MIC (S. aureus 495)	MIC (S. aureus 497)	other results
CC(NC(=S)[N-]c1cccc(C(F)(F)F)c1)c1ccccc1.CC(NC(=S)[N-]c1cccc(C(F)(F)F)c1)c1ccccc1.[Cu+2] (racemic) [Cu2, Copper(II) Complex with 1-(1-phenylethyl)-3-[3-(trifluoromethyl)phenyl]thiourea]	128 µg/mL	16 µg/mL	32 µg/mL	8 µg/mL	16 µg/mL	128 µg/mL	16 mm	16 mm	16 µg/mL	128 µg/mL	8 µg/mL	16 µg/mL	16 µg/mL	8 µg/mL	16 µg/mL	32 µg/mL	16 µg/mL	16 µg/mL	16 µg/mL	16 µg/mL	MIC (S. epidermidis 436): 16 µg/mL; MIC (S. aureus 585): 8 µg/mL; MIC (S. epidermidis 515): 16 µg/mL; MIC (S. epidermidis 432): 16 µg/mL; MIC [5]: 8 µg/mL; MIC [6]: 16 µg/mL; MIC (S. epidermidis 469): 32 µg/mL; MIC (S. epidermidis 513): 16 µg/mL; MIC (S. aureus 537): 8 µg/mL; MIC (E. coli NCTC 10538): ≥256 µg/mL; MIC (C. albicans ATCC 10231): 128 µg/mL
FC(F)(F)c1cccc([N-]C(=S)NCCc2ccccc2)c1.FC(F)(F)c1cccc([N-]C(=S)NCCc2ccccc2)c1.O.[Cu+2] [Cu1, Copper(II) Complex with 1-(2-phenylethyl)-3-[3-(trifluoromethyl)phenyl]thiourea]	128 µg/mL	64 µg/mL	64 µg/mL	64 µg/mL	64 µg/mL	64 µg/mL	16 mm	16 mm	64 µg/mL	128 µg/mL	16 µg/mL	128 µg/mL	64 µg/mL	64 µg/mL	64 µg/mL	64 µg/mL	64 µg/mL	64 µg/mL	64 µg/mL	64 µg/mL	MIC (S. epidermidis 436): 128 µg/mL; MIC (S. aureus 585): 64 µg/mL; MIC (S. epidermidis 515): 128 µg/mL; MIC (S. epidermidis 432): 64 µg/mL; MIC [5]: 16 µg/mL; MIC [6]: 64 µg/mL; MIC (S. epidermidis 469): 64 µg/mL; MIC (S. epidermidis 513): 64 µg/mL; MIC (S. aureus 537): 64 µg/mL; MIC (E. coli NCTC 10538): ≥256 µg/mL; MIC (C. albicans ATCC 10231): 128 µg/mL
FC(F)(F)c1cccc([N-]C(=S)NCc2ccccc2)c1.FC(F)(F)c1cccc([N-]C(=S)NCc2ccccc2)c1.[Cu+2] [Cu3, Copper(II) Complex with 1-benzyl-3-[3-(trifluoromethyl)phenyl]thiourea]	≥256 µg/mL	64 µg/mL	64 µg/mL	64 µg/mL	64 µg/mL	32 µg/mL	15 mm	15 mm	64 µg/mL	32 µg/mL	16 µg/mL	64 µg/mL	64 µg/mL	64 µg/mL	64 µg/mL	64 µg/mL	64 µg/mL	64 µg/mL	64 µg/mL	64 µg/mL	MIC (S. epidermidis 436): 64 µg/mL; MIC (S. aureus 585): 64 µg/mL; MIC (S. epidermidis 515): 64 µg/mL; MIC (S. epidermidis 432): 64 µg/mL; MIC [5]: 16 µg/mL; MIC [6]: 64 µg/mL; MIC (S. epidermidis 469): 64 µg/mL; MIC (S. epidermidis 513): 64 µg/mL; MIC (S. aureus 537): 64 µg/mL; MIC (E. coli NCTC 10538): ≥256 µg/mL; MIC (C. albicans ATCC 10231): 32 µg/mL
